Test results published in PubChem BioAssay (NCI).
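Step 1: Grow cells in 96-well plates. Step 2: Expose to compound for 48 hours at 5 concentrations. Step 3: Interpolate endpoints linearly; if unreached, use highest concentration. GI50: concentration for 50% inhibition of growth. TGI marks complete inhibition of growth.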

How the values were obtained:
Assay in all cases: NCI-60 cell line screen, 48 h
BT-549 breast = system: BT-549 breast
SN12C renal = system: SN12C renal
MCF7 breast = system: MCF7 breast
MALME-3M melanoma = system: MALME-3M melanoma
A549 NSCLC = system: A549 NSCLC
SR leukemia = system: SR leukemia
786-0 renal = system: 786-0 renal
SNB-19 CNS = system: SNB-19 CNS
MOLT-4 leukemia = system: MOLT-4 leukemia
UACC-257 melanoma = system: UACC-257 melanoma
COLO 205 colon = system: COLO 205 colon
NCI/ADR-RES ovarian = system: NCI/ADR-RES ovarian
TK-10 renal = system: TK-10 renal
EKVX NSCLC = system: EKVX NSCLC
CAKI-1 renal = system: CAKI-1 renal
U251 CNS = system: U251 CNS
CCRF-CEM leukemia = system: CCRF-CEM leukemia
LOX IMVI melanoma = system: LOX IMVI melanoma
HCT-15 colon = system: HCT-15 colon
SK-MEL-5 melanoma = system: SK-MEL-5 melanoma
NCI-H226 lung = system: NCI-H226 lung
HT29 colon = system: HT29 colon
PC-3 prostate = system: PC-3 prostate
UO-31 renal = system: UO-31 renal
MDA-MB-435 = system: MDA-MB-435
RXF 393 renal = system: RXF 393 renal
OVCAR-8 ovarian = system: OVCAR-8 ovarian
M14 melanoma = system: M14 melanoma
SK-OV-3 ovarian = system: SK-OV-3 ovarian
SF-295 CNS = system: SF-295 CNS
SK-MEL-2 melanoma = system: SK-MEL-2 melanoma
NCI-H522 lung = system: NCI-H522 lung
OVCAR-3 ovarian = system: OVCAR-3 ovarian
KM12 colon = system: KM12 colon
UACC-62 melanoma = system: UACC-62 melanoma
SW-620 colon = system: SW-620 colon
HOP-62 NSCLC = system: HOP-62 NSCLC
IGROV1 ovarian = system: IGROV1 ovarian
OVCAR-4 ovarian = system: OVCAR-4 ovarian
K-562 leukemia = system: K-562 leukemia
SF-539 CNS = system: SF-539 CNS
HCT-116 colon = system: HCT-116 colon
ACHN renal = system: ACHN renal
OVCAR-5 ovarian = system: OVCAR-5 ovarian
A498 renal = system: A498 renal
T-47D breast = system: T-47D breast
SNB-75 CNS = system: SNB-75 CNS
DU-145 prostate = system: DU-145 prostate
RPMI-8226 leukemia = system: RPMI-8226 leukemia
NCI-H23 lung = system: NCI-H23 lung
NCI-H460 lung = system: NCI-H460 lung
HS 578T breast = system: HS 578T breast
HCC-2998 colon = system: HCC-2998 colon
MDA-MB-231 breast = system: MDA-MB-231 breast
SF-268 CNS = system: SF-268 CNS
SK-MEL-28 melanoma = system: SK-MEL-28 melanoma
HOP-92 NSCLC = system: HOP-92 NSCLC
HL-60(TB) leukemia = system: HL-60(TB) leukemia

In the case of O=C(CNc1c(Cl)cccc1Cl)Nc1ccc(-c2nc3ccccc3s2)cc1, the GI50 (BT-549 breast) is reported as 1.72 µM, the TGI (BT-549 breast) is reported as 4.64 µM and the GI50 (SN12C renal) is reported as 2.31 µM. It also gave a TGI (SN12C renal) of 7.1 µM, a GI50 (MCF7 breast) of 0.0913 µM and a TGI (MCF7 breast) of 5.7 µM. The GI50 (MALME-3M melanoma) was 1.85 µM, the TGI (MALME-3M melanoma) was 3.75 µM and the GI50 (A549 NSCLC) was 5.83 µM. The TGI (A549 NSCLC) was 26.6 µM, the GI50 (SR leukemia) was 0.797 µM and the TGI (SR leukemia) was > 23.1 µM. For the same compound, the GI50 (786-0 renal) was 1.78 µM, the TGI (786-0 renal) was 3.76 µM and the GI50 (SNB-19 CNS) was 3.14 µM. The TGI (SNB-19 CNS) was 12.5 µM, the GI50 (MOLT-4 leukemia) was 0.666 µM and the TGI (MOLT-4 leukemia) was > 27.3 µM. The GI50 (UACC-257 melanoma) was 4.27 µM, the TGI (UACC-257 melanoma) was 16.6 µM and the GI50 (COLO 205 colon) was 2.33 µM. The TGI (COLO 205 colon) was 4.81 µM, the GI50 (NCI/ADR-RES ovarian) was 3.22 µM and the TGI (NCI/ADR-RES ovarian) was 9.89 µM. It also gave a GI50 (TK-10 renal) of 2.04 µM, a TGI (TK-10 renal) of 4.69 µM and a GI50 (EKVX NSCLC) of 11.2 µM. For the same compound, the TGI (EKVX NSCLC) was 28.2 µM, the GI50 (CAKI-1 renal) was 2.26 µM and the TGI (CAKI-1 renal) was 5.79 µM. It also gave a GI50 (U251 CNS) of 2.06 µM, a TGI (U251 CNS) of 4.65 µM and a GI50 (CCRF-CEM leukemia) of 0.485 µM. It also gave a GI50 (LOX IMVI melanoma) of 1.39 µM, a TGI (LOX IMVI melanoma) of 2.88 µM and a GI50 (HCT-15 colon) of 1.78 µM. It also gave a TGI (HCT-15 colon) of 5.28 µM, a GI50 (SK-MEL-5 melanoma) of 1.61 µM and a TGI (SK-MEL-5 melanoma) of 3.3 µM. The GI50 (NCI-H226 lung) was 2.17 µM, the TGI (NCI-H226 lung) was 5.72 µM and the GI50 (HT29 colon) was 2.16 µM. The TGI (HT29 colon) was 4.76 µM, the GI50 (PC-3 prostate) was 1.66 µM and the TGI (PC-3 prostate) was 3.52 µM. The GI50 (UO-31 renal) was 3.62 µM, the TGI (UO-31 renal) was 9.13 µM and the GI50 (MDA-MB-435) was 2.64 µM. It also gave a TGI (MDA-MB-435) of 10.9 µM, a GI50 (RXF 393 renal) of 4.15 µM and a TGI (RXF 393 renal) of 9.73 µM. The GI50 (OVCAR-8 ovarian) was 3.01 µM, the TGI (OVCAR-8 ovarian) was > 29.8 µM and the GI50 (M14 melanoma) was 2.05 µM. For the same compound, the TGI (M14 melanoma) was 5.52 µM, the GI50 (SK-OV-3 ovarian) was 9.11 µM and the TGI (SK-OV-3 ovarian) was 70.6 µM. For the same compound, the GI50 (SF-295 CNS) was 15.6 µM, the TGI (SF-295 CNS) was 30.2 µM and the GI50 (SK-MEL-2 melanoma) was 3.32 µM. The TGI (SK-MEL-2 melanoma) was 12.4 µM, the GI50 (NCI-H522 lung) was 1.56 µM and the TGI (NCI-H522 lung) was 3.61 µM. The GI50 (OVCAR-3 ovarian) was 1.97 µM, the TGI (OVCAR-3 ovarian) was 3.73 µM and the GI50 (KM12 colon) was 2.62 µM. It also gave a TGI (KM12 colon) of 6.94 µM, a GI50 (UACC-62 melanoma) of 1.71 µM and a TGI (UACC-62 melanoma) of 3.87 µM. For the same compound, the GI50 (SW-620 colon) was 2.2 µM, the TGI (SW-620 colon) was 4.9 µM and the GI50 (HOP-62 NSCLC) was 6.8 µM. It also gave a TGI (HOP-62 NSCLC) of 21.3 µM, a GI50 (IGROV1 ovarian) of 2.3 µM and a TGI (IGROV1 ovarian) of 5.85 µM. The GI50 (OVCAR-4 ovarian) was 1.95 µM, the TGI (OVCAR-4 ovarian) was 5.19 µM and the GI50 (K-562 leukemia) was 1.24 µM. The TGI (K-562 leukemia) was > 33.9 µM, the GI50 (SF-539 CNS) was 1.88 µM and the TGI (SF-539 CNS) was 3.62 µM. It also gave a GI50 (HCT-116 colon) of 1.98 µM, a TGI (HCT-116 colon) of 4.93 µM and a GI50 (ACHN renal) of 1.97 µM. It also gave a TGI (ACHN renal) of 3.93 µM, a GI50 (OVCAR-5 ovarian) of 2.53 µM and a TGI (OVCAR-5 ovarian) of 7.79 µM. For the same compound, the GI50 (A498 renal) was 8.93 µM, the TGI (A498 renal) was 23.4 µM and the GI50 (T-47D breast) was 1.89 µM. It also gave a TGI (T-47D breast) of 5.37 µM, a GI50 (SNB-75 CNS) of 2.42 µM and a TGI (SNB-75 CNS) of 8.22 µM. For the same compound, the GI50 (DU-145 prostate) was 3.41 µM, the TGI (DU-145 prostate) was 10.7 µM and the GI50 (RPMI-8226 leukemia) was 2.44 µM. For the same compound, the TGI (RPMI-8226 leukemia) was > 22.8 µM, the GI50 (NCI-H23 lung) was 2.06 µM and the TGI (NCI-H23 lung) was 4.58 µM. The GI50 (NCI-H460 lung) was 2.69 µM, the TGI (NCI-H460 lung) was 7.96 µM and the GI50 (HS 578T breast) was 5.11 µM. The TGI (HS 578T breast) was 67.8 µM, the GI50 (HCC-2998 colon) was 2.11 µM and the TGI (HCC-2998 colon) was 4.29 µM. For the same compound, the GI50 (MDA-MB-231 breast) was 2.67 µM, the TGI (MDA-MB-231 breast) was 7.31 µM and the GI50 (SF-268 CNS) was 2.4 µM. For the same compound, the TGI (SF-268 CNS) was 6.44 µM, the GI50 (SK-MEL-28 melanoma) was 2.61 µM and the TGI (SK-MEL-28 melanoma) was 7.31 µM. For the same compound, the GI50 (HOP-92 NSCLC) was 1.66 µM, the TGI (HOP-92 NSCLC) was 4.45 µM and the GI50 (HL-60(TB) leukemia) was 2.37 µM. The TGI (HL-60(TB) leukemia) was 7.5 µM.
